Experimental data as given in US10729659B2, “Nanogel-mediated drug delivery” (The Cleveland Clinic Foundation, priority 2012, dated 2020).
≈ marks a conversion by molar mass, not a printed value.

Key:
[1] = system: MCF-7/Adr cells; assay: Microarray gene expression analysis; assay type: cell-based, human; conditions: decitabine vs untreated MCF-7/Adr
Description: Microarray analysis was performed using the standard protocol provided by IlluminaCorporation (San Diego, Calif.). […] 20 μL of nuclease free water containing total RNA at the concentration of 100 ng/μL was stored at −80° C. Approximately […] of total RNA was subjected to gene expression array study using Illuminahuman 6v2 chip. The array-hybridization and scanning of array images were performed at the Cleveland Clinic Genomics Core. The microarray scanned image and intensity files were imported into Illumina Bead Studio Analysis software version 3.2.6 (Illumina Inc.). Error models were applied and ratios were built for each treatment array versus its respective vehicle control. For qPCR analysis, RNA isolated from treated and untreated cells were converted into cDNA using Mo-MLV reverse transcriptase (Promega Inc., USA) according to manufacturers' instructions. Taqman expression primers (Applied Biosystems Inc., USA) and ABI PRISM Sequence Detection Instrument 7700 (Applied Biosystems Inc., USA) were used for real-time reverse transcription-PCR (RT-PCR). Fold change in target genes was calculated about the human glyceraldehyde 3-phosphate dehydrogenase (GAPDH).

[2] = system: MCF-7/Adr cells; assay: Cell viability assay, DAC solution vs DAC nanogel; assay type: cell-based; conditions: Homo sapiens, NCI/ADR-RES, read-out: IC50 value at day 12 post drug treatment
Description: Cytotoxicity of DAC in solution vs. DAC loaded nanogel was compared at day 5, 10 or 12 post drug additions in drug resistant cells. In a typical experiment; cells were seeded at 3000 cells/well in 96 well plates. 24 h post seeding, 0.1 mL cell culture media containing different concentrations of DAC solution or DAC nanogel was added and incubated for 3 d. Post incubation; cells were washed with 1×-DPBS and then replaced with drug free medium at every 48 h until cell viability was measured via an MTS assay kit (Promega CellTiter 96 AQueous Promega, Madison, Wis.). The effects of the drug on cell proliferation were calculated as the percentage cell growth vs. growth of control cells that received no drug treatment.
Cytotoxicity of DAC in solution vs. different DAC loaded nanogel formulations was compared at day 5, 10 or 12 post drug additions in drug resistant cells. In a typical experiment, cells were seeded at 3000 cells/well in 96 well plates. Twenty four hr post seeding, 0.1 mL cell culture media containing different concentrations of DAC solution or DAC nanogel was added and incubated for 3 d. […] Cell viability was measured using MTS (Promega CellTiter 96 AQueous Promega, Madison, Wis.). The effects of the drug on cell proliferation were calculated as the percentage cell growth vs. growth of control cells that received no drug treatment.

[3] = system: P-gp; assay: Western blot of P-gp expression in MCF-7/Adr cells; assay type: cell-based, human
Text: Proteins ([…]) from DAC treated or untreated cell lysates in RIPA buffer were probed for mouse monoclonal P-glycoprotein (calbiochem) and mouse anti-actin (Sigma-Aldrich, St. Louis, Mo.). Blotting and detection of the indicated proteins were done as per standard western blot protocol.

[4] = system: MDA-MB 231 cells; assay: Physical characterization of exosomes from DAC treated cells; assay type: cell-based, human; conditions: exosomes from cells treated with DAC 0.5 μM, 24 h
Description: Exosome isolation protocol: MDA-MB 231 cells were grown in DMEM supplemented with 10% fetal bovine serum (FBS), and 1% antibiotics. Prior to use in cell culture; the cell culture medium was depleted of endogenous exosomes present in FBS. Exosomes depleted media were prepared by 16 h of ultracentrifugation of cell culture medium supplemented with 50% FBS at 100, 000×g and filtered through 0.2 μm filter. Through out this process sterile conditions were maintained.
To isolate the exosomes from cells treated with DAC, cells were cultured in 10 cell culture dishes (150×25 mm), When the cells were at 70% confluency, the cells were washed with 1×PBS, re-fed with endogenous exosomes depleted media containing DAC (0.5 μM) and incubated for 24 h. Because of small production of exosomes from cultured cells, culture media from all the DAC treated plates were pooled for exosome isolation. All the exosome isolation procedures were done at 4° C. Culture supernatants were first centrifuged at 300×g for 10 min to pellet the cells. To remove the dead cells, supernatant was centrifuged at 2,000×g for 15 min (Sorvall Legend RTcentrifuge, Thermo Electron Corp. Waltham, Mass.). Supernatant was pipetted off and transferred to pre-cooled polycarbonate tubes appropriate for 50.1Ti fixed angle ultracentrifugation rotor (Beckman Coulter Inc., Fullerton, Calif., USA) and centrifuged at 10,000×g for 30 min to remove cell debris. Pellet was discarded and supernatant was aliquoted to several ultracentrifuge tubes and centrifuged at 110,000×g for 70 min to pellet exosomes. Supernatant was discarded. The pellet in each tube was re-suspended in 1 mL PBS and pooled in to single ultracentrifuge tube and centrifuged at 110,000×g for 70 min. […]
Five micro-liter of PFA fixed exosome suspension was dropped on 200 mesh formvar—carbon coated EM grid (grid size: 97 μm) (TEDPELLA, Redding, Calif., USA) and exosomes were allowed to adsorb to the grids by drying the suspension at room temperature for 20-30 min. […] From TEM images sizes of exosomes were measured using Image J software.

[5] = cited from earlier work
[6] = rat model; cited from earlier work

SMILES: Nc1ncn([C@H]2C[C@H](O)[C@@H](CO)O2)c(=O)n1 [DAC, 5-aza-2′-deoxycytidine]
- Fold Change 48 h ([1]; gene CDKN1A (p21, Cip1)): 3.6 fold
- Fold Change 48 h ([1]; gene CST6): 52.8 fold
- Fold Change 48 h ([1]; gene DPEP3): −87.8 fold
- Fold Change 48 h ([1]; gene DPPA2): −11.2 fold
- Fold Change 48 h ([1]; gene GAGE2): 1754.4 fold
- Fold Change 48 h ([1]; gene GAGE5): 1358.9 fold
- Fold Change 48 h ([1]; gene GAGE6): 813.8 fold
- Fold Change 48 h ([1]; gene GAGE7B): 907.8 fold
- Fold Change 48 h ([1]; gene GAGE8): 411.0 fold
- Fold Change 48 h ([1]; gene IL23A (p19)): 3.02 fold
- Fold Change 48 h ([1]; gene MAGEA4): 4.7 fold
- Fold Change 48 h ([1]; gene MMP9): −215.1 fold
- Fold Change 48 h ([1]; gene PAGE 4): 11.6 fold
- Fold Change 48 h ([1]; gene PAGE5): 25.4 fold
- Fold Change 48 h ([1]; gene PAK3): 2.7 fold
- Fold Change 48 h ([1]; gene PNMA5): −19.8 fold
- Fold Change 48 h ([1]; gene PYCARD): 23.6 fold
- Fold Change 48 h ([1]; gene RASD1): 35.6 fold
- Fold Change 48 h ([1]; gene SOCSI): 28.2 fold
- Fold Change 48 h ([1]; gene SOX15): 10.2 fold
- Fold Change 48 h ([1]; gene STK31): 1663.3 fold
- Fold Change 48 h ([1]; gene TFF2): −16.8 fold
- Fold Change 48 h ([1]; gene THY1): 103.1 fold
- Fold Change 48 h ([1]; gene TMEM101): 33.7 fold
- Fold Change 48 h ([1]; gene ZFP42): −22.5 fold
- IC50 [2]: 0.434 µg/mL (≈ 1.9 µM)
- Decrease in P-gp protein expression vs untreated cells ([3]; day 1): 45%
- P-gp expression ([3]; day 3): returned to normal levels
- Hydrodynamic diameter of exosomes [4]: 495 nm
- PI of exosomes [4]: 0.61
- Exosome size by transmission electron micrograph ([4]; in nm (unit assumed)): 97.2±8.0
- In vivo half life [5]: 10 to 30 min
- Plasma protein binding ([5]; in vivo): poor plasma protein binding
- Carcinogenicity [6]: has not
